According to patent publication US10961242B2, “Compounds as autotaxin inhibitors and pharmaceutical compositions comprising the same” (LegoChem Biosciences, Inc., priority 2018, dated 2021):
Structures can show the parent of a compound that is named as a salt. Where two headings read alike, the source gives them in different places.

Key:
[1] = test system: LPA production in blood serum caused by autotoxin; test: Inhibitory activity on LPA production in mouse blood serum; type: biochemical; settings: mouse blood serum (m), 18:1 LPC, 3 hours at 37° C.
Description: After 100-fold dilution of each test compound solution (5 μL) (10 mM, 100%, dimethyl sulfoxide) with 495 μL of methanol, 3 μL of the diluted methanol solution (1% dimethyl sulfoxide) was mixed with 57 μL of human or mouse blood serum solution in a 1.5 mL tube. […] Subsequently, a solution prepared by diluting 10 mg/mL 18:1 LPC solution (50% ethanol) with blood serum to have concentration of 375 μg/mL was aliquoted in an amount of 2 μL to each tube so as to have 50 μL. Each tube was kept for 3 hours in a water bath at 37° C. to allow a reaction. To the tube obtained after the reaction, 100 μL of 0.5 μM 17:0 LPA solution (chloroform/methanol/water=65/35/8) was aliquoted and mixed therein. Centrifuge was carried out for 10 minutes using a centrifuge at conditions of 14,000 rpm and 4° C. 100 μL of 50% methanol solution is aliquoted first to a 96-well polypropylene plate (Agilent Technology 5042-1385), and the supernatant (50 μL) in a tube after the centrifuge was carefully transferred to the plate followed by mixing. After covering it with Well cap (Thermo 276011), analysis was carried out by LC-MS/MS (Agilent 1260).
In the following Table 3, the mouse blood serum was described as (m) and human blood serum was described as (h).

human ENPP2 = human ENPP2 (Homo sapiens (Human), UniProt Q13822); test: Inhibitory activity on human ENPP2 (FS-3 assay); type: biochemical; settings: read-out: IC50
Description: Two-fold dilution of each test compound solution (10 μM, 100% dimethyl sulfoxide) is carried out on 96-well V bottom plate (Costar 3363). After ten-fold dilution of each the test compound solution (100% dimethyl sulfoxide) with deionized distilled water, 10 μL of the diluted each mpound solution (10% dimethyl sulfoxide) was aliquoted to a black flat bottom 96-well plate (Costar 3915).

[2] = human ENPP2, FS-3 substrate, 30 min at 37° C.

Row | Compound | IC50 [1] [nM] | IC50 (human ENPP2; [2]) [nM] | IC50 (human ENPP2) [nM]
1 | O=C(NCCC(=O)N1CCc2[nH]nnc2C1)c1cnc(NCc2cccc(OC(F)(F)F)c2)nc1 [Compound 2, N-(3-oxo-3-{1H,4H,5H,6H,7H-[1,2,3]triazolo[4,5-c]pyridin-5-yl}propyl)-2-({[3-(trifluoromethoxy)phenyl]methyl}amino)pyrimidine-5-carboxamide] | 23 | 2.1 | 
2 | O=C(NC[C@H]1CN(c2ccc3[nH]c(=O)oc3c2)C(=O)O1)c1cnc(NCc2cccc(OC(F)(F)F)c2)nc1 [Compound 10, N-{[(5S)-2-oxo-3-(2-oxo-2,3-dihydro-1,3-benzoxazol-6-yl)-1,3-oxazolidin-5-yl]methyl}-2-({[3-(trifluoromethoxy)phenyl]methyl}amino)pyrimidine-5-carboxamide] | 10 |  | 2.8
3 | O=C(CCN1CCc2[nH]nnc2C1)N1CCN(c2cnc(NC3Cc4ccccc4C3)nc2)CC1 [Compound 12, 1-(4-{2-[(2,3-dihydro-1H-inden-2-yl)amino]pyrimidin-5-yl}piperazin-1-yl)-3-{1H,4H,5H,6H,7H-[1,2,3]triazolo[4,5-c]pyridin-5-yl}propan-1-one] | 11 | 3.2 | 
4 | O=C(CCN1CCc2[nH]nnc2C1)N1CCN(c2cnc(NCc3cccc(OC(F)(F)F)c3)nc2)CC1 [Compound 13, 3-{1H,4H,5H,6H,7H-[1,2,3]triazolo[4,5-c]pyridin-5-yl}-1-{4-[2-({[3(trifluoromethoxy)phenyl]methyl}amino)pyrimidin-5-yl]piperazin-1-yl}propan-1-one] | 13 | 3.7 | 
5 | O=C(CCN1CCc2[nH]nnc2C1)N1CCC(c2cnc(NC3Cc4ccccc4C3)nc2)CC1 [Compound 14, 1-(4-{2-[(2,3-dihydro-1H-inden-2-yl)amino]pyrimidin-5-yl}piperidin-1-yl)-3-{1H,4H,5H,6H,7H-[1,2,3]triazolo[4,5-c]pyridin-5-yl}propan-1-one] | 8 | 2.4 | 
6 | CC(C)(CN1CCc2[nH]nnc2C1)C(=O)N1CCN(c2cnc(NC3Cc4ccccc4C3)nc2)CC1 [Compound 19, 1-(4-{2-[(2,3-dihydro-1H-inden-2-yl)amino]pyrimidin-5-yl}piperazin-1-yl)-2,2-dimethyl-3-{1H,4H,5H,6H,7H-[1,2,3]triazolo[4,5-c]pyridin-5-yl}propan-1-one] | 25 | 3.1 | 
7 | O=C(CN1CCN(c2cnc(NC3Cc4ccccc4C3)nc2)CC1)N1CCc2[nH]nnc2C1 [Compound 20, 2-(4-{2-[(2,3-dihydro-1H-inden-2-yl)amino]pyrimidin-5-yl}piperazin-1-yl)-1-{1H,4H,5H,6H,7H-[1,2,3]triazolo[4,5-c]pyridin-5-yl}ethan-1-one] | 29 | 2.6 | 
8 | O=C(CN1CCC(c2cnc(NC3Cc4ccccc4C3)nc2)CC1)N1CCc2[nH]nnc2C1 [Compound 22, 2-(4-{2-[(2,3-dihydro-1H-inden-2-yl)amino]pyrimidin-5-yl}piperidin-1-yl)-1-{1H,4H,5H,6H,7H-[1,2,3]triazolo[4,5-c]pyridin-5-yl}ethan-1-one] | 57 | 2.9 | 
9 | O=C(CN1CCN(c2cnc(NC3Cc4ccccc4C3)nc2)CC1)Nc1ccc2[nH]c(=O)oc2c1 [Compound 27, 2-(4-{2-[(2,3-dihydro-1H-inden-2-yl)amino]pyrimidin-5-yl}piperazin-1-yl)-N-(2-oxo-2,3-dihydro-1,3-benzoxazol-6-yl)acetamide] | 10 | 2.4 | 
10 | O=C(Cc1nnc(-c2cnc(NC3Cc4ccccc4C3)nc2)o1)N1CCc2[nH]nnc2C1 [Compound 33, 2-(5-(2-((2,3-dihydro-1H-inden-2-yl)amino)pyrimidin-5-yl)-1,3,4-oxadiazol-2-yl)-1-(1,4,6,7-tetrahydro-5H-[1,2,3]triazolo[4,5-c]pyridin-5-yl) ethan-1-one] |  | 2.4 | 
11 | O=C(Cc1nnc(-c2cnc(NCc3cccc(OC(F)(F)F)c3)nc2)o1)N1CCc2[nH]nnc2C1 [Compound 34, 1-{1H,4H,5H,6H,7H-[1,2,3]triazolo[4,5-c]pyridin-5-yl}-2-{5-[2-({[3-(trifluoromethoxy)phenyl]methyl}amino)pyrimidin-5-yl]-1,3,4-oxadiazol-2-yl}ethan-1-one] | 52 | 2 | 
12 | O=C(Cc1nnc(-c2ccc(NC3Cc4ccccc4C3)nc2)o1)N1CCc2[nH]nnc2C1 [Compound 36, 2-(5-{6-[(2,3-dihydro-1H-inden-2-yl)amino]pyridin-3-yl}-1,3,4-oxadiazol-2-yl)-1-{1H,4H,5H,6H,7H-[1,2,3]triazolo[4,5-c]pyridin-5-yl}ethan-1-one] |  | 2.9 | 
13 | O=C(Cc1nnc(-c2cnc(NC3Cc4ccccc4C3)nc2)o1)N1CCc2nc[nH]c2C1 [Compound 38, 2-(5-{2-[(2,3-dihydro-1H-inden-2-yl)amino]pyrimidin-5-yl}-1,3,4-oxadiazol-2-yl)-1-{3H,4H,5H,6H,7H-imidazo[4,5-c]pyridin-5-yl}ethan-1-one] |  | 4 | 
14 | O=C(Cc1nnc(-c2cnc(NC3Cc4ccccc4C3)nc2)o1)N1CCc2[nH]c(=O)ccc2C1 [Compound 39, 6-[2-(5-{2-[(2,3-dihydro-1H-inden-2-yl)amino]pyrimidin-5-yl}-1,3,4-oxadiazol-2-yl)acetyl]-1,2,5,6,7,8-hexahydro-1,6-naphthyridin-2-one] |  | 10.6 | 
15 | O=C(Cc1nnc(-c2cnc(NC3Cc4ccccc4C3)nc2)o1)N1CCc2[nH]c(=O)[nH]c2C1 [Compound 40, 5-[2-(5-{2-[(2,3-dihydro-1H-inden-2-yl)amino]pyrimidin-5-yl}-1,3,4-oxadiazol-2-yl)acetyl]-1H,2H,3H,4H,5H,6H,7H-imidazo[4,5-c]pyridin-2-one] |  | 10.1 | 
16 | O=C(Cc1nnc(-c2cnc(NC3Cc4ccccc4C3)nc2)o1)N1CCc2[nH]ncc2C1 [Compound 42, 2-(5-{2-[(2,3-dihydro-1H-inden-2-yl)amino]pyrimidin-5-yl}-1,3,4-oxadiazol-2-yl)-1-{1H,4H,5H,6H,7H-pyrazolo[4,3-c]pyridin-5-yl}ethan-1-one] |  | 8.1 | 
17 | Nc1nc2c(s1)CCN(C(=O)Cc1nnc(-c3cnc(NC4Cc5ccccc5C4)nc3)o1)C2 [Compound 43, 1-{2-amino-4H,5H,6H,7H-[1,3]thiazolo[4,5-c]pyridin-5-yl}-2-(5-{2-[(2,3-dihydro-1H-inden-2-yl)amino]pyrimidin-5-yl}-1,3,4-oxadiazol-2-yl)ethan-1-one] |  | 11.2 | 
18 | O=C(Cc1nnc(-c2cnc(NC3Cc4ccccc4C3)nc2)o1)N1CCc2cn[nH]c2C1 [Compound 44, 2-(5-{2-[(2,3-dihydro-1H-inden-2-yl)amino]pyrimidin-5-yl}-1,3,4-oxadiazol-2-yl)-1-{1H,4H,5H,6H,7H-pyrazolo[3,4-c]pyridin-6-yl}ethan-1-one] |  | 16.6 | 
19 | O=C(Cn1cc(-c2cnc(NC3Cc4ccccc4C3)nc2)c(CN2CCNCC2)n1)N1CCc2[nH]nnc2C1 [Compound 89, 2-(4-{2-[(2,3-dihydro-1H-inden-2-yl)amino]pyrimidin-5-yl}-3-(piperazin-1-ylmethyl)-1H-pyrazol-1-yl)-1-{1H,4H,5H,6H,7H-[1,2,3]triazolo[4,5-c]pyridin-5-yl}ethan-1-one] | 21 | 4.2 | 
20 | O=C(Cn1cc(-c2cnc(NC3Cc4ccccc4C3)nc2)c(CN2CCCNCC2)n1)N1CCc2[nH]nnc2C1 [Compound 90, 2-[3-(1,4-diazepan-1-ylmethyl)-4-{2-[(2,3-dihydro-1H-inden-2-yl)amino]pyrimidin-5-yl}-1H-pyrazol-1-yl]-1-{1H,4H,5H,6H,7H-[1,2,3]triazolo[4,5-c]pyridin-5-yl}ethan-1-one. HCl] |  | 2.6 | 
21 | CCN1CCN(Cc2nn(CC(=O)N3CCc4[nH]nnc4C3)cc2-c2cnc(NC3Cc4ccccc4C3)nc2)CC1 [Compound 91, 2-(4-{2-[(2,3-dihydro-1H-inden-2-yl)amino]pyrimidin-5-yl}-3-[(4-ethylpiperazin-1-yl)methyl]-1H-pyrazol-1-yl)-1-{1H,4H,5H,6H,7H-[1,2,3]triazolo[4,5-c]pyridin-5-yl}ethan-1-one] |  | 2.4 | 
22 | O=C(Cn1cc(-c2cnc(NC3Cc4ccccc4C3)nc2)c(CN2CCN(CC(F)F)CC2)n1)N1CCc2[nH]nnc2C1 [Compound 92, 2-(3-{[4-(2,2-difluoroethyl)piperazin-1-yl]methyl}-4-{2-[(2,3-dihydro-1H-inden-2-yl)amino]pyrimidin-5-yl}-1H-pyrazol-1-yl)-1-{1H,4H,5H,6H,7H-[1,2,3]triazolo[4,5-c]pyridin-5-yl}ethan-1-one] |  | 2.3 | 
23 | O=C(Cn1cc(-c2cnc(NC3Cc4ccccc4C3)nc2)c(CCN2CCOCC2)n1)N1CCc2[nH]nnc2C1 [Compound 93, 2-(4-{2-[(2,3-dihydro-1H-inden-2-yl)amino]pyrimidin-5-yl}-3-[2-(morpholin-4-yl)ethyl]-1H-pyrazol-1-yl)-1-{1H,4H,5H,6H,7H-[1,2,3]triazolo[4,5-c]pyridin-5-yl}ethan-1-one] |  | 2.1 | 
24 | CCc1nn(CC(=O)N2CCN(C(=O)CO)CC2)cc1-c1cnc(NC2Cc3ccccc3C2)nc1 [Compound 94, 1-{4-[2-(4-{2-[(2,3-dihydro-1H-inden-2-yl)amino]pyrimidin-5-yl}-3-ethyl-1H-pyrazol-1-yl)acetyl]piperazin-1-yl}-2-hydroxyethan-1-one] |  | 2.3 | 
